Assays:
[1] = target: T1, human GPCR sphingosine 1-phosphate receptor 2 (Homo sapiens, UniProt O95136); test: S1PR2 antagonist Ca2+ flux assay; type: cell-based; conditions: antagonist mode, CHO-S1PR2 cells, S1P at EC80, Ca2+ fluorescence; read-out: S1P2 EC50 (nM), S1P2 antagonist EC50
T1 construct: host or cells: CHO
Summary of the method: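 CHO cells stably expressing human S1PR2, serum-starved 1 h, Fluo8-loaded; compound-evoked Ca2+ fluorescence read 3 min (agonist mode), then after 15 min S1P at EC80 added and read 3 min (antagonist mode). Max/baseline fluorescence ratios normalised to vehicle and S1P EC100 or EC50 controls; EC50 derived.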

[2] = target: T2, human GPCR sphingosine 1-phosphate receptor 1 (Homo sapiens, UniProt P21453); test: S1PR1 selectivity Ca2+ flux assay (antagonist readout); type: cell-based; conditions: antagonist readout, CHO cells overexpressing human S1PR1 and Gq, S1P at EC80 (6 nM); read-out: S1P1 EC50 (nM), S1P1 antagonist EC50
T2 construct: host or cells: CHO
T2 sequence (P21453 whole entry): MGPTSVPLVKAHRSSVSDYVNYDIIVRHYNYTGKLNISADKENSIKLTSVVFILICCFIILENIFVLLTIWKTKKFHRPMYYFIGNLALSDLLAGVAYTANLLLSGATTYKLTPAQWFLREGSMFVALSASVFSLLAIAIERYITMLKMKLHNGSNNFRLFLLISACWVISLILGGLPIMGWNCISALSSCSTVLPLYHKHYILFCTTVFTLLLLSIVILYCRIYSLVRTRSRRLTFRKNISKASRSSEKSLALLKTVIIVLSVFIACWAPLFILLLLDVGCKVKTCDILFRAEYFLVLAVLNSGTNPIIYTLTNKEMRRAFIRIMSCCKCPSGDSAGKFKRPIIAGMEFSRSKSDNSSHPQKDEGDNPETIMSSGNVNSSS
Summary of the method: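 CHO cells stably overexpressing human S1PR1, starved 1 h in 0.1% FAF BSA medium, then Fluo 8 dye-loaded. Compound added, then after 15 min at 37 °C, S1P-evoked Ca2+ flux recorded. Maximal signal/background ratio normalized to controls as % inhibition; IC50 from four-parameter logistic fit.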

[3] = target: T3, human GPCR sphingosine 1-phosphate receptor 5 (Homo sapiens, UniProt Q9H228); test: S1PR5 selectivity Ca2+ flux assay (antagonist readout); type: cell-based; conditions: CHO cells overexpressing human S1PR5 and Gq, agonist at EC80 (20 nM), read-out: S1P5 EC50 (nM), S1P5 antagonist EC50
T3 construct: host or cells: CHO
T3 sequence (Q9H228 whole entry): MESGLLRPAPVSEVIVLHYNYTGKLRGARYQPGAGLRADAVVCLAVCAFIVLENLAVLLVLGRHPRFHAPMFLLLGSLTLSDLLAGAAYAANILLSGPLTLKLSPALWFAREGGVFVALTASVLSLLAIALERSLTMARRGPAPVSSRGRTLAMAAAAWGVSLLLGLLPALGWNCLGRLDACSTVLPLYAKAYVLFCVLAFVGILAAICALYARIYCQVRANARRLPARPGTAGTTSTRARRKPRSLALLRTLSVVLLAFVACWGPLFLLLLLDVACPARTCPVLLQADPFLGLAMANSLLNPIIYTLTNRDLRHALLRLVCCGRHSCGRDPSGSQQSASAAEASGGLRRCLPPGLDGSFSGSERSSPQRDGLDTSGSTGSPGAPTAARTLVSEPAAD
Summary of the method: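 CHO cells stably coexpressing human S1PR5 and Gq were serum-starved, Fluo 8-loaded and preincubated 15 min at 37° C with compound. They were then stimulated at EC80 with an S1PR5-specific agonist, and calcium fluorescence was recorded for 3 min. Peak/baseline ratios were normalized to controls and fitted to a four-parameter IC50 equation.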

S1PR2 = target: T4, S1PR2 (Homo sapiens, UniProt O95136); test: S1PR2 binding assay (competition with radioactively labeled S1P, SpA); conditions: membranes from stable cell line over expressing S1PR2, SpA beads; read-out: S1P2 EC50 (nM), S1PR2 binding EC50
T4 construct: expressed in transfected cells
T4 sequence (O95136 whole entry): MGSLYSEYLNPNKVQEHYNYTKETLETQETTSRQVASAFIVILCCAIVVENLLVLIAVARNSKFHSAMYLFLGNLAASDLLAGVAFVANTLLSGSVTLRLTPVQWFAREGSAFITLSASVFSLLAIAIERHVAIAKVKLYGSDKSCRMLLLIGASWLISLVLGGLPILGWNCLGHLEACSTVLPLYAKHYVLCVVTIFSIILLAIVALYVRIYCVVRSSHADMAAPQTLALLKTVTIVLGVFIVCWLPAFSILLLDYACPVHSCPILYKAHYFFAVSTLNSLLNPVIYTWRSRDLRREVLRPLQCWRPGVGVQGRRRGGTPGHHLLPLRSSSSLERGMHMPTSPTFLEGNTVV
Summary of the method: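 Competition with [3H]S1P for membranes from a stable S1PR2-overexpressing cell line, 20 μg/well, captured on PVT-WGA SPA beads, in 20 mM Tris pH 7.5, 10 mM MgCl2, 100 mM NaCl, 0.4% fatty-acid-free BSA, 1 mM Na3VO4. 2 h at room temperature, then centrifugation and scintillation counting.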

HFL-1 cells [4] = test: IL-8 production assay (S1P induced IL-8); type: cell-based; conditions: Homo sapiens, HFL1; S1P (1 μM) induced IL-8 in HFL-1 cells, starvation medium without HSA; read-out: IL8 EC50
Summary of the method: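 HFL-1 human fetal lung fibroblasts were starved in F12K/1% FBS, then given compound for 1 h (10-point, 1/3 dilution, 30 μM top, 0.3% DMSO final). S1P was added at 1 μM final for 16–24 h at 37 °C, and secreted IL-8 in supernatant quantified by ELISA.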

HFL-1 cells [5] = test: IL8 assay in the presence of Human Serum Albumin; conditions: HFL1, read-out: HSA IL8 EC50
Procedure: To evaluate the influence of plasma protein binding of S1P as well as compound, the S1P induced IL-8 levelswereevaluatedin presence of Human Serum Albumin (HSA, equivalent to 40% human serum).
Human Fetal Lung cells (HFL-1) are seeded in 96 well plates in growth medium (F12K+10% heat inactivated FBS+1% Pen/strep). […] On day three, compounds are added (10 point serial dilution, 30 μM highest concentration, 1/3 dilution, 0.3% DMSO final) and plates are incubated for 1 h at 37° C., 5% CO2. Subsequently S1P at 5 μM final concentration is added and plates are incubated for 16 to 24 h at 37° C., 5% COafter which the supernatant was collected. IL-8 levels in the supernatant are determined with the IL-8 ELISA of R&D systems.

T1 sequence (O95136 whole entry): as above

EC50 [1] [nM]	EC50 [2] [nM]	EC50 [3] [nM]	EC50 (S1PR2) [nM]	EC50 (HFL-1 cells [4]) [nM]	EC50 (HFL-1 cells [5]) [nM]	SMILES
19.1	≥ 19800	19800	64	6.65	201	O=C(Cn1nc(Cc2nc3cc(OCC(F)F)c(Cl)cc3[nH]2)c2c(F)ccc(F)c2c1=O)N1CCOCC1 [Compound 152, 4-[[6-chloro-5-(2,2-difluoroethoxy)-1H-benzimidazol-2-yl]methyl]-5,8-difluoro-2-(2-morpholino-2-oxo-ethyl)phthalazin-1-one]
28.5	≥ 19800	19800	246	27.4	254	N#Cc1ccc2c(=O)n(CC(=O)N3CCOCC3)nc(Cc3nc4cc(OCC(F)F)c(Cl)cc4[nH]3)c2c1 [Compound 153]
15.6	≥ 19800	19800	154	47.4	108	N#CC1(COc2cc3[nH]c(Cc4nn(CC(=O)N5CCOCC5)c(=O)c5ccccc45)nc3cc2Cl)CC1 [Compound 161, 1-[[6-chloro-2-[[3-(2-morpholino-2-oxo-ethyl)-4-oxo-phthalazin-1-yl]methyl]-3H-benzimidazol-5-yl)oxymethyl]cyclopropanecarbonitrile]
31.9	≥ 19800	19800	129	42.6	64.9	N#Cc1cc2nc(Cc3nn(CC(=O)N4CCOCC4)c(=O)c4c3CCCC4)[nH]c2cc1OCC(F)F [Compound 164, 6-(2,2-difluoroethoxy)-2-[[3-(2-morpholino-2-oxo-ethyl)-4-oxo-5,6,7,8-tetrahydrophthalazin-1-yl]methyl]-1H-benzimidazole-5-carbonitrile]
13.2	≥ 19800	19800	191	6.61	18.4	CCOc1cc2[nH]c(Cc3nn(CC(=O)N4CCOCC4)c(=O)c4c3CCCC4)nc2cc1C#N [Compound 167, 6-ethoxy-2-[[3-(2-morpholino-2-oxo-ethyl)-4-oxo-5,6,7,8-tetrahydrophthalazin-1-yl]methyl]-1H-benzimidazole-5-carbonitrile]
42.5	≥ 19800	19800	112	10.6	137	CCOc1cc2[nH]c(Cc3nn(CC(=O)N4CCOCC4)c(=O)c4ccccc34)nc2cc1C#N [Compound 170, 6-ethoxy-2-[[3-(2-morpholino-2-oxo-ethyl)-4-oxo-phthalazin-1-yl]methyl]-1H-benzimidazole-5-carbonitrile]
7.57	≥ 19800	19800	15.8	29.1	33.4	CC(F)(F)COc1cc2[nH]c(Cc3nn(CC(=O)N4CCOCC4)c(=O)c4ccccc34)nc2cc1Cl [Compound 172, 4-[[5-chloro-6-(2,2-difluoropropoxy)-1H-benzimidazol-2-yl]methyl]-2-(2-morpholino-2-oxo-ethyl)phthalazin-1-one]
489	≥ 19800	19800	386	116	618	CN(C)C1CCN(C(=O)Cn2nc(Cc3nc4cc(OCC(F)F)c(C#N)cc4[nH]3)c3ccccc3c2=O)C1 (stereo not drawn) [Compound 176, 6-(2,2-difluoroethoxy)-2-[[3-[2-[3-(dimethylamino)pyrrolidin-1-yl]-2-oxo-ethyl]-4-oxo-phthalazin-1-yl]methyl]-3H-benzimidazole-5-carbonitrile]

More lines, now with the values behind:

SMILES	EC50 [1] [nM]	EC50 [2] [nM]	EC50 [3] [nM]	EC50 (S1PR2) [nM]	EC50 (HFL-1 cells [4]) [nM]	EC50 (HFL-1 cells [5]) [nM]
O=C(Cn1nc(Cc2nc3cc(Cl)c(OC(F)(F)F)cc3[nH]2)c2c(c1=O)CCCC2)N[C@H]1CCC[C@@H]1O [Compound 146, 2-[4-[[5-chloro-6-(trifluoromethoxy)-1H-benzimidazol-2-yl]methyl]-1-oxo-5,6,7,8-tetrahydrophthalazin-2-yl]-N-[(1S,2S)-2-hydroxycyclopentyl]acetamide]	15.3	≥ 19900	6640	23	29.5	280
O=C(Cn1nc(Cc2nc3cc(Cl)c(OCC4CC4)c(F)c3[nH]2)c2ccccc2c1=O)N1CCOCC1 [Compound 149, 4-[[5-chloro-6-(cyclopropylmethoxy)-7-fluoro-1H-benzimidazol-2-yl]methyl]-2-(2-morpholino-2-oxo-ethyl)phthalazin-1-one]	30.4	≥ 19800	19800	142	211	381
O=C(Cn1nc(Cc2nc3cc(OCC(F)F)c(F)cc3[nH]2)c2ccccc2c1=O)N1CCOCC1 [Compound 156, 4-[[5-(2,2-difluoroethoxy)-6-fluoro-1H-benzimidazol-2-yl]methyl]-2-(2-morpholino-2-oxo-ethyl)phthalazin-1-one]	59.8	≥ 19800	19800	647	593	868
O=C(Cc1nn(Cc2nc3cc(OCC(F)F)c(Cl)cc3[nH]2)c2ccccc2c1=O)N1CCOCC1 [Compound 159, 1-[6-Chloro-5-(2,2-difluoro-ethoxy)-1H-benzoimidazol-2-ylmethyl]-3-(2-morpholin-4-yl-2-oxo-ethyl)-1H-cinnolin-4-one]	9.25	≥ 19800	19800	30.7	1.02	14
CCOc1cc2[nH]c(Cc3nn(CC(=O)N4CCOCC4)c(=O)c4ccccc34)nc2cc1C(F)(F)F [Compound 168, 4-[[6-ethoxy-5-(trifluoromethyl)-1H-benzimidazol-2-yl]methyl]-2-(2-morpholino-2-oxo-ethyl)phthalazin-1-one]	11.9	≥ 19800	19800	86.4	4.57	28.1
O=C(Cn1cc(Cc2nc3cc(OCC(F)F)c(Cl)cc3[nH]2)c2ccccc2c1=O)N1CCOCC1 [Compound 169, 4-[6-Chloro-5-(2,2-difluoro-ethoxy)-1H-benzoimidazol-2-ylmethyl]-2-(2-morpholin-4-yl-2-oxo-ethyl)-2H-isoquinolin-1-one]	19.9	≥ 19800	19800	375	48.7	400
COCCOc1cc2[nH]c(Cc3nn(CC(=O)N4CCOCC4)c(=O)c4ccccc34)nc2cc1Cl [Compound 174, 4-[[5-chloro-6-(2-methoxyethoxy)-1H-benzimidazol-2-yl]methyl]-2-(2-morpholino-2-oxo-ethyl)phthalazin-1-one]	34.9	≥ 19800	19800	56.8	20.1	58.9
N#Cc1cc2[nH]c(Cc3nn(CC(=O)N4CCOCC4)c(=O)c4ccccc34)nc2cc1OCC(F)(F)F [Compound 175, 2-[[3-(2-morpholino-2-oxo-ethyl)-4-oxo-phthalazin-1-yl]methyl]-6-(2,2,2-trifluoroethoxy)-3H-benzimidazole-5-carbonitrile]	11.4	≥ 19800	19800	78.9	10.9	61.6
C[C@@H]1CN(C(=O)Cn2nc(Cc3nc4cc(OCC(F)F)c(C#N)cc4[nH]3)c3ccccc3c2=O)C[C@H](C)O1 [Compound 177, 6-(2,2-difluoroethoxy)-2-[[3-[2-[(2S,6R)-2,6-dimethylmorpholin-4-yl]-2-oxo-ethyl)-4-oxo-phthalazin-1-yl]methyl]-3H-benzimidazole-5-carbonitrile]	57.1	≥ 19800	19800	124	18.6	120
N#Cc1cc2[nH]c(Cc3nn(CC(=O)NC4CCOC4)c(=O)c4ccccc34)nc2cc1OCC(F)F (stereo not drawn) [Compound 178, 2-[4-[[6-cyano-5-(2,2-difluoroethoxy)-1H-benzimidazol-2-yl]methyl]-1-oxo-phthalazin-2-yl]-N-THF-3-yl-acetamide]	118	≥ 19800	19800	188	160	504

— patent US20210315893A1 (Galapagos NV, priority 2017, published 2021)
